Measured values published in patent US10381110B2, “Molecules” (University of Dundee, priority 2010, dated 2019).

Target: T1, 5-HT3 (Homo sapiens, UniProt P46098)
T1 sequence (P46098 24-478): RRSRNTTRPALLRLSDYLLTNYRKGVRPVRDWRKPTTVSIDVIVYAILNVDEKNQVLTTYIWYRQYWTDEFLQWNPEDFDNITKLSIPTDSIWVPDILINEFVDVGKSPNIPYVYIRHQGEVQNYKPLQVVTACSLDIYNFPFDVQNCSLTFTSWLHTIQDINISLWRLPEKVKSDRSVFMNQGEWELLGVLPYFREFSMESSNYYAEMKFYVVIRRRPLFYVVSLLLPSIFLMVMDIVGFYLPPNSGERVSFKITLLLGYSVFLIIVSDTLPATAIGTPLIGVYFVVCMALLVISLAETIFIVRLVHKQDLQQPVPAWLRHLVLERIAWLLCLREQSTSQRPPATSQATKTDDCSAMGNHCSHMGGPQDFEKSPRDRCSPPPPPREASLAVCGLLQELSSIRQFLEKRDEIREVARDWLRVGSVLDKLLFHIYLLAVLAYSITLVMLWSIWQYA
Assay: Secondary radioligand binding assay (Ki)
Method: Assay Buffer: Standard Binding Buffer (50 mM Tris-HCl, 10 mM MgCl2, 1 mM EDTA, pH 7.4)
Membrane Fraction Source: Transiently or stably transfected cell lines (e.g., HEK293, COS, CHO, NIH3T3)
Radioligand is diluted to five times the assay concentration (see Table 18) in Standard Binding Buffer. Typically, the assay concentration of radioligand is a value between one half the KD and the KD of a particular radioligand at its target. 50 μl aliquots of radioligand are dispensed into the wells of a 96-well plate containing 100 μl of Standard Binding Buffer. Then, duplicate 50 μl aliquots of the test and reference compound dilutions are added.
The 250 μl reactions are incubated at room temperature and shielded from light (to prevent photolysis of light-sensitive ligands) for 1.5 hours, then harvested by rapid filtration onto Whatman GF/B glass fiber filters pre-soaked with 0.3% polyethyleneimine using a 96-well Brandel harverster. Four rapid 500 μl washes are performed with chilled Standard Binding Buffer to reduce non-specific binding. Filters are placed in 6 ml scintillation tubes and allowed to dry overnight. […] The tubes are capped, labeled, and counted by liquid scintillation counting. […] The filter mats are dried, then scintillant is melted onto the filters and the radioactivity retained on the filters is counted in a Microbeta scintillation counter. […]

## CC1Cc2ccccc2N1C(=O)CN1CCN(Cc2ccccc2)CC1 (stereo not shown) [STT-00185638, 2-[-4-(benzyl)-piperazin-1-yl]-1-(2-methy-2,3-dihydro-indol-1-yl)-ethanone]
  Ki: 2.11 µM
